Series [1] addresses Histamine H3 receptor (Homo sapiens, UniProt Q9Y5N1). In words: Displacement of [3H]methyl- N-alpha methylhistamine dihydrochloride from human recombinant H3 receptor expressed in CHOK1 cells measured after 30 mins by liquid scintillation counter method. It counts as cell-based. (In general: Loss of bound radioactivity is the signal in a displacement assay; it reports binding, not function.)

For series [2], the target named is Histamine H3 receptor (Rattus norvegicus, UniProt Q9QYN8). In words: Displacement of [3H]methyl- N-alpha methylhistamine dihydrochloride from Sprague-Dawley rat cerebral cortex H3 receptor measured after 30 mins by scintillation counter method.
For series [3], the target named is Muscarinic acetylcholine receptor (Rattus norvegicus) (UniProt P08482+P08483+P08485+P08911+P10980). In words: Displacement of [3H]quinuclidinyl benzilate from Wistar rat cortex muscarinic acetylcholine receptor at 3 uM by liquid scintillation counter method relative to control.
The target in series [4] is Voltage-gated inwardly rectifying potassium channel KCNH2 (Homo sapiens, UniProt Q12809). In words: Inhibition of human ERG.
The subject of series [5] is Rattus norvegicus. In words: In vivo antagonist activity at H3 receptor in po dosed Wistar rat assessed as inhibition of imetit induced dipsogenia preincubated for 30 mins followed by imetit administration at 3 mg/kg,sc. The class given is functional.
Series [6] is described as follows: Fraction of drug metabolized in human microsomes. It counts as ADME, Microsome. The following applies: read-out: Fm.
Series [7] can be described thus: Fraction of drug metabolized in rat microsomes. It counts as ADME, Microsome. Particulars: read-out: Fm.
In series [8] the target is Muscarinic acetylcholine receptor. In words: Displacement of [3H]quinuclidinyl benzilate from Wistar rat cortex muscarinic acetylcholine receptor by liquid scintillation counter method.
Series [9] concerns Rattus norvegicus. In words: In vivo antagonist activity at Wistar rat H3 receptor assessed as inhibition of imetit-induced dipsogenia at 30 mg/kg, po for 30 mins followed by imetit administration at 3 mg/kg, sc, relative to control. It counts as functional.
Series [10] has as its system Rattus norvegicus. In words: In vivo antagonist activity at H3 receptor in ip dosed Wistar rat assessed as inhibition of imetit induced dipsogenia preincubated for 30 mins followed by imetit administration at 3 mg/kg,sc. It counts as functional.
For series [11], the species on record is Rattus norvegicus. In words: Selectivity index, ratio of Ki for Wistar rat cortex muscarinic acetylcholine receptor to Ki for Sprague-Dawley rat cerebral cortex H3 receptor.
Series [12] can be described thus: Tmax in Wistar rat brain at 10 mg/kg, po measured after 5 hrs by HPLC-MS/MS analysis. It counts as ADME, organism-based.
Series [13] is described as follows: Ratio of AUC (0 to infinity) in Wistar rat brain to plasma at 10 mg/kg, po measured after 5 hrs by HPLC-MS/MS analysis. The class given is ADME, organism-based.
Series [14] concerns Rattus norvegicus. In words: Cognitive enhancement in scopolamine-induced amnesia Wistar rat model assessed as increase in memory retrieval at 3 mg/kg, po with scopolamine treatment for 23 hrs followed by compound administration measured after 1 hr by water labyrinth relative to control. The class given is functional.
A short description of series [15]: Solubility of compound in DMSO. The class given is physicochemical.
The nature of series [16]: Kinetic solubility of compound. The class given is physicochemical. Particulars: read-out: Kinetic_solubility.
Series [17] is described as follows: Lipophilicity, logP of compound. Particulars: octanol/water. It counts as physicochemical.
The nature of series [18]: Partition coefficient, logD of compound at pH 7.4. It counts as physicochemical. Particulars: octanol/water.
In series [19] the target is Histamine H3 receptor (Rattus norvegicus) (UniProt Q9QYN8). In words: Displacement of [3H]methyl- N-alpha methylhistamine dihydrochloride from Sprague-Dawley rat cerebral cortex H3 receptor measured after 30 mins by scintillation counter method relative to control.

Consider 20 compounds from ChEMBL document CHEMBL4396962, “Discovery of novel steroidal histamine H3 receptor antagonists/inverse agonists. Part 2. Versatile steroidal carboxamide derivatives” (Bioorg Med Chem Lett, 2019).

Values after ≈ are worked out from the molar mass of the structure shown.

Histamine H3 receptor (Rattus norvegicus, UniProt Q9QYN8), sequence (Q9QYN8 whole entry): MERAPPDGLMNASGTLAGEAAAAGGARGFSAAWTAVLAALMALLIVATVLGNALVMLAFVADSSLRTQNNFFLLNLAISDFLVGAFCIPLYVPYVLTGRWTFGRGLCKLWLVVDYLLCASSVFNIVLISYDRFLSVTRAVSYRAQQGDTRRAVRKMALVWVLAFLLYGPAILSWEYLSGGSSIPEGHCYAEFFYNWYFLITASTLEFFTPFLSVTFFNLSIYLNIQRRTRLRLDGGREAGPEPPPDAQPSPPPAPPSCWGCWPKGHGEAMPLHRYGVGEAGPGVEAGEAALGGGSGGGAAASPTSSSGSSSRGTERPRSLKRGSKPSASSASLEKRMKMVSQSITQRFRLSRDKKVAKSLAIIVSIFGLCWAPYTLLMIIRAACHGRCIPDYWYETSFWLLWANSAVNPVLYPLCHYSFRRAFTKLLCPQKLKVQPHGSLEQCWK
Histamine H3 receptor (Homo sapiens, UniProt Q9Y5N1), sequence (Q9Y5N1 whole entry): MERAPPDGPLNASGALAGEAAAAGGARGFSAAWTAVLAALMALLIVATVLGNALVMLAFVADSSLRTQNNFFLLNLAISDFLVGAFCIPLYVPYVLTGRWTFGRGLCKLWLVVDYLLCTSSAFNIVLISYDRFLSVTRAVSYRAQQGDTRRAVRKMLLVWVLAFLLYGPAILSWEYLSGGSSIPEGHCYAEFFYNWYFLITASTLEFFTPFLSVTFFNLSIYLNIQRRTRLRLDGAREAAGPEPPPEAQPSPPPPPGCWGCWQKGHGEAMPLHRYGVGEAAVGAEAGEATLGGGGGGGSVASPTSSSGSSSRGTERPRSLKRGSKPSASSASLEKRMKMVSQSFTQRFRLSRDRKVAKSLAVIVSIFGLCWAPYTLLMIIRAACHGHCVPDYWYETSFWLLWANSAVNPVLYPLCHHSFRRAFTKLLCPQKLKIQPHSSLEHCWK
Voltage-gated inwardly rectifying potassium channel KCNH2, sequence (Q12809 whole entry): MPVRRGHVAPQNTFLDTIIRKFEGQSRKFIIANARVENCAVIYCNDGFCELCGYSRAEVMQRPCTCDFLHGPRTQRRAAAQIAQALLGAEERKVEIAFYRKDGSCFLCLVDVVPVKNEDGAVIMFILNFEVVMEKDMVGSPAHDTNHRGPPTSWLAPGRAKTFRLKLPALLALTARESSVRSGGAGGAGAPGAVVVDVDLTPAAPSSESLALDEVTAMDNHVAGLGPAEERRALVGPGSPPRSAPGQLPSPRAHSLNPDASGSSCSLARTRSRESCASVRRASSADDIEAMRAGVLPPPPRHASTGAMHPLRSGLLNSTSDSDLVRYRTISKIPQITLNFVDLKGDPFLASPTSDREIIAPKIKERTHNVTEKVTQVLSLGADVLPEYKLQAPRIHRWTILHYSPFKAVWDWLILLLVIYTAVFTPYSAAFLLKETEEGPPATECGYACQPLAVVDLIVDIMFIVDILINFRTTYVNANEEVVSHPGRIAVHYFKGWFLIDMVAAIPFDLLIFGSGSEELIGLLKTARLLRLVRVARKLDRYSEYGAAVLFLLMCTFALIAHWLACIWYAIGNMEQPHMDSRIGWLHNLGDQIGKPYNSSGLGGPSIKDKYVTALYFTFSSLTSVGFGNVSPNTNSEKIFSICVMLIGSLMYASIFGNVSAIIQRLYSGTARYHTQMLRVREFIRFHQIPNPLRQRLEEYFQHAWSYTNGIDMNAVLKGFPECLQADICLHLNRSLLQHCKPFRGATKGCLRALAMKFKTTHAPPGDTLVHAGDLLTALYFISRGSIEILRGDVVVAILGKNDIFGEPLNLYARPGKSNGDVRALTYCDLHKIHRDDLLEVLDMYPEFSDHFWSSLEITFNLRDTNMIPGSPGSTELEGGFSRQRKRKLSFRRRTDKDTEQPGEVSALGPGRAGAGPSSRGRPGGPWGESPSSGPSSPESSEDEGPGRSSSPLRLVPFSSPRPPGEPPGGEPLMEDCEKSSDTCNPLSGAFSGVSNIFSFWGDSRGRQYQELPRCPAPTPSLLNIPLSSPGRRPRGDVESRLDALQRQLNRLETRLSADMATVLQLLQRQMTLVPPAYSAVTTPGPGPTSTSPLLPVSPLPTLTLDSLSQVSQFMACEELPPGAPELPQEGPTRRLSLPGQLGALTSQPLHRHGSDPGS
Histamine H3 receptor (Rattus norvegicus), sequence (Q9QYN8 whole entry): as the sequence (Q9QYN8 whole entry) above

The term Ki denotes the equilibrium dissociation constant of an inhibitor or competing ligand from its target. Broadly, the IC50 is the concentration at which inhibition is half-maximal. A higher IC50 goes with weaker potency. Broadly, the ED50 is the dose that gives a 50% effect, or the effect in half of the subjects. Consider `CCNC(=O)[C@H]1CC[C@@]2(C)CC[C@@H]3c4ccc(OCCCN5CCC[C@H]5C)cc4CC[C@H]3[C@H]12`, for which the Ki at Histamine H3 receptor [1] came out at 9 nM; on Histamine H3 receptor [2], 24 nM. The Activity in [3] was determined as 24%. This compound also had an IC50 in series [4] of 4100 nM. In addition, the ED50 with Rattus norvegicus [5] was in the range of 2.26 to 2.3 mg/kg. In addition, the metabolised in [6] came out at 62%; in [7], 66%.

`CC(=O)N[C@@H]1CC(=O)[C@@]2(C)CC[C@@H]3c4ccc(OCCCN5CCC[C@H]5C)cc4CC[C@H]3[C@H]12`: the Ki on Histamine H3 receptor [1] worked out at 10 nM; on Histamine H3 receptor [2], 39 nM. Also, the Activity in series [3] turned out to be 20%. For the same compound, the metabolised in series [6] is 85%; in series [7], 46%.

In the case of `C[C@]12CC[C@@H]3c4ccc(OCCCN5CCCC5)cc4CC[C@H]3[C@@H]1CC[C@@H]2N1CCCC1`, the Ki in series [8] was determined as 110 nM. Besides, half-maximal inhibition in series [4] (IC50) required 7500 nM. Also, the “inhibition (INH)” value in the series on Rattus norvegicus [9] is given as 19%. Besides, in the series on Rattus norvegicus [10], the ED50 was 12 mg/kg.

In the case of `C[C@H]1CCCN1CCCOc1ccc2c(c1)CC[C@H]1[C@@H]3[C@H](C(=O)N4CCCC4)CC(=O)[C@@]3(C)CC[C@H]21`, the results for the Ki at Histamine H3 receptor [1] and on Histamine H3 receptor [2] were 30 nM and 9 nM, respectively. The same compound registered an Activity in [3] of 16%. In addition, in series [4], the IC50 worked out at 80000 nM. Moreover, the ED50 in the series with Rattus norvegicus [5] was found to be 0.6 mg/kg. Besides, the metabolised in series [6] was 75%; in [7], 85%.

For the compound `C[C@@H]1CCCN1CCCOc1ccc2c(c1)CC[C@H]1[C@@H]3[C@@H](C(=O)NCC4CC4)CC[C@@]3(C)CC[C@H]21`, the results for the Ki at Histamine H3 receptor [1] and on Histamine H3 receptor [2] were 9 nM and 13 nM, respectively. The same compound yielded an Activity in series [3] of 27%. The IC50 in series [4] was found to be 4100 nM. Moreover, the metabolised in series [6] was 90%; in [7], 76%.

With `C[C@]12CC[C@@H]3c4ccc(OCCCN5CCCC5=O)cc4CC[C@H]3[C@@H]1CC[C@@H]2N1CCCC1`, the values for the Ki (at Histamine H3 receptor [1]; at Histamine H3 receptor [2]; in series [8]) were 9 nM, 22 nM and 700 nM, respectively. For the same compound, the metabolised in series [6] is 77%; in series [7], 85%.

Regarding `CCNC(=O)[C@@H]1CC(=O)[C@@]2(C)CC[C@@H]3c4ccc(OCCCN5CCC[C@H]5C)cc4CC[C@H]3[C@H]12`, the Ki on Histamine H3 receptor [1] is 43 nM.

With `C[C@@H]1CCCN1CCCOc1ccc2c(c1)CC[C@@H]1[C@@H]2CC[C@]2(C)[C@@H](N3CCCC3=O)CC[C@@H]12`, the Ki on Histamine H3 receptor [2] is 135 nM. This compound came in with an Activity in series [3] of 51%.

In the case of “N-ethyl-2-((8R,9S,13S,14S,15R,17S)-17-methoxy-13-methyl-3-(3-((R)-2-methylpyrrolidin-1-yl)propoxy)-7,8,9,11,12,13,14,15,16,17-decahydro-6H-cyclopenta[a]phenanthren-15-yl)acetamide”, the Activity in series [3] was determined as 6%.

For `CCNC(=O)[C@H]1CC(=O)[C@@]2(C)CC[C@@H]3c4ccc(OCCCN5CCC(F)CC5)cc4CC[C@H]3[C@H]12`, at Histamine H3 receptor [1], the Ki was 530 nM.

As to `CCNC(=O)[C@H]1CC(=O)[C@@]2(C)CC[C@@H]3c4ccc(OCCCN5CC[C@@H](F)C5)cc4CC[C@H]3[C@H]12`, the Ki on Histamine H3 receptor [1] worked out at 230 nM.

Regarding `CCNC(=O)[C@H]1C[C@H](OC)[C@@]2(C)CC[C@@H]3c4ccc(OCCCN5CCC[C@H]5C)cc4CC[C@H]3[C@H]12`, the Ki on Histamine H3 receptor [1] amounted to 9 nM; on Histamine H3 receptor [2], 28 nM. This compound also had an Activity in [3] of 7%. This compound displayed an IC50 in [4] of 11400 nM. Moreover, in the series on Rattus norvegicus [5], the ED50 came to 2.5 mg/kg. Also, the metabolised in series [6] and in series [7] was 96% each time.

As for `CCNC(=O)[C@H]1CC(=O)[C@@]2(C)CC[C@@H]3c4ccc(OCCCN5CCC(F)(F)CC5)cc4CC[C@H]3[C@H]12`, the Ki on Histamine H3 receptor [1] is 1370 nM.

With `C[C@@H]1CCCN1CCCOc1ccc2c(c1)CC[C@H]1[C@@H]3[C@@H](C(=O)NCC4CCC4)CC[C@@]3(C)CC[C@H]21`, the Ki at Histamine H3 receptor [1] came out at 5 nM; on Histamine H3 receptor [2], 19 nM; in series [8] it was 1708 nM. The results for the metabolised in series [6] and in series [7] were 48% and 50%, respectively.

`CCNC(=O)[C@@H]1CC(=O)[C@@]2(C)CC[C@@H]3c4ccc(OCCN5CCC[C@@H]5C)cc4CC[C@H]3[C@H]12`: at Histamine H3 receptor [1], the Ki worked out at 260 nM. This compound had an Activity in series [3] of 4%.

On to `CCNC(=O)[C@@H]1CC(=O)[C@@]2(C)CC[C@@H]3c4ccc(OCCCCN5CCC[C@@H]5C)cc4CC[C@H]3[C@H]12`, for which the Ki on Histamine H3 receptor [1] is 234 nM. The compound further registered an Activity in series [3] of 17%.

With `C[C@@H]1CCCN1CCCOc1ccc2c(c1)CC[C@@H]1[C@@H]2CC[C@]2(C)[C@@H](C(=O)N3CCCC3)CC[C@@H]12`, the Ki at Histamine H3 receptor [1] came to 2 nM; on Histamine H3 receptor [2] it was 18 nM; in [8], 454 nM. The Ratio Ki in the series filed under Rattus norvegicus [11] turned out to be 25.

On to `CCNC(=O)[C@H]1CC(=O)[C@@]2(C)CC[C@@H]3c4ccc(OCCCN5CCC[C@@H]5C)cc4CC[C@H]3[C@H]12`, for which the Ki at Histamine H3 receptor [1] came out at 21 nM.

The term Tmax denotes the time at which the peak concentration occurs. Broadly, the Kp is the ratio of the level in a tissue or fluid to that in plasma or blood. As a reminder, the solubility is how much of the substance goes into solution per volume. Lower therefore signals a poorly soluble substance. The term logP denotes a log measure of how a compound divides between an organic and an aqueous phase. As usually defined, the logD is lipophilicity at a set pH, counting ionised and neutral species. Read a low logD as lower lipophilicity. Take `CCNC(=O)[C@H]1CC(=O)[C@@]2(C)CC[C@@H]3c4ccc(OCCCN5CCC[C@H]5C)cc4CC[C@H]3[C@H]12`: the Ki was 3 nM at Histamine H3 receptor [1], 9 nM on Histamine H3 receptor [2] and 4700 nM in [8]. In series [4], this compound returned an IC50 of 17500 nM. Moreover, in the series with Rattus norvegicus [5], the ED50 stood at 0.47 mg/kg. The metabolised in series [6] and in series [7] was 99% in each case. Moreover, the Tmax in series [12] is 1 h. The Kp at 5 h in series [13] is 0.24. Also, the Activity in the series on Rattus norvegicus [14] was 52.3%. In series [15], the solubility was more than 50000 µM. The solubility kinetic in series [16] was 250 µM (≈ 117 µg/mL). The compound also came in with a logP in series [17] of 4.2. The compound further had a logD in [18] of 1.7.

For orientation: inhibition means the relative decrease from the control value, in per cent. As for `CCN(CC)C(=O)[C@@H]1CC(=O)[C@@]2(C)CC[C@@H]3c4ccc(OCCCN5CCC[C@@H]5C)cc4CC[C@H]3[C@H]12`, on Histamine H3 receptor [1], the Ki was 34 nM. The inhibition in [19] was determined as 44%.
